Laboratory results reported in paper PMC4904262 (ACS Medicinal Chemistry Letters, 2016).

Legend:
Conditions in all cases: 1 µM, ATP at Km
PKCIOTA = PKCIOTA (Homo sapiens, UniProt P41743)
IR, ACTIVATED = IR, ACTIVATED (Homo sapiens, UniProt P06213)
PTK5 = PTK5 (Homo sapiens, UniProt P42685)
TGFBR1 = TGFBR1 (Homo sapiens, UniProt P36897)
EPHB3 = EPHB3 (Homo sapiens, UniProt P54753)
IR = IR (Homo sapiens, UniProt P06213)
TRKA = TRKA (Homo sapiens, UniProt P04629)
PKCMU = PKCMU (Homo sapiens, UniProt Q15139)
EPHB4 = EPHB4 (Homo sapiens, UniProt P54760)
HIPK3 = HIPK3 (Homo sapiens, UniProt Q9H422)
HIPK3, sequence (Q9H422 whole entry): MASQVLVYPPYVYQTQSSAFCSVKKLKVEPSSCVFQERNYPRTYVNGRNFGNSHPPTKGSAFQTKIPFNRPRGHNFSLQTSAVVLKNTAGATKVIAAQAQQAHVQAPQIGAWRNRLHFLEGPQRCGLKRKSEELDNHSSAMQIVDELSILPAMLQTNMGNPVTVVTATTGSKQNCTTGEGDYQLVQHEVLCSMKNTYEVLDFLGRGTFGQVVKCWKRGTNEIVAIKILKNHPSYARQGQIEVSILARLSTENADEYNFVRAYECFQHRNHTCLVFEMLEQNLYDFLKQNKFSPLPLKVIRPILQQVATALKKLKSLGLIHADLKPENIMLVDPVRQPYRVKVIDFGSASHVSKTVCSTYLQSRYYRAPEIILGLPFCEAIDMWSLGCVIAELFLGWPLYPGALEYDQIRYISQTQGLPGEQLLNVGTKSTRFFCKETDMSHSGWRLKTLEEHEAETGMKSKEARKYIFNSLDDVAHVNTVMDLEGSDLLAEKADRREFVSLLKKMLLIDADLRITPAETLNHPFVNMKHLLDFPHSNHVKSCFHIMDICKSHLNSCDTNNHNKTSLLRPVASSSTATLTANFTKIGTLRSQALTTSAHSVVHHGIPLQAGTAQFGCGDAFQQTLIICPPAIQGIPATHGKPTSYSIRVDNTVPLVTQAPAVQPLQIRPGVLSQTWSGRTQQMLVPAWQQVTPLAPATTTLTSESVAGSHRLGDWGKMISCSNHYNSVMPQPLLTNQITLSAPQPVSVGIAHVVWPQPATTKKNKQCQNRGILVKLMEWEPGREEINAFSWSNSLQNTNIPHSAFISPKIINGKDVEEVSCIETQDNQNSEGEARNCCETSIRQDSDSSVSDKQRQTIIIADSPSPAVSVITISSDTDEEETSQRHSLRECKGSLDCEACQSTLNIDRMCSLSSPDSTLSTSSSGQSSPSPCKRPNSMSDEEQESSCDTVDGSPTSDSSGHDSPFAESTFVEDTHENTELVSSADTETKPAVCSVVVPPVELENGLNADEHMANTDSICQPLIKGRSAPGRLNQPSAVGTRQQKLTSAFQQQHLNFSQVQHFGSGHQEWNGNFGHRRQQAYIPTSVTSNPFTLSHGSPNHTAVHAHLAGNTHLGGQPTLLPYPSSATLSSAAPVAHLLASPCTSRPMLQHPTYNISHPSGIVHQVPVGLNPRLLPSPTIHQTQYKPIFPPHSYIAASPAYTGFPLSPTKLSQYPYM

CLK2 = CLK2 (Homo sapiens, UniProt P49760)
[…] = […] (Homo sapiens, UniProt Q13557)
PAK5 = PAK5 (Homo sapiens, UniProt Q9P286)
PKCALPHA = PKCALPHA (Homo sapiens, UniProt P17252)
PHKGAMMA2 = PHKGAMMA2 (Homo sapiens, UniProt P15735)
NEK11 = NEK11 (Homo sapiens, UniProt Q8NG66)
LKB1 = LKB1 (Homo sapiens, UniProt Q15831)
ALK4 = ALK4 (Homo sapiens, UniProt P36896)
PRAK = PRAK (Homo sapiens, UniProt Q8IW41)
CK2 = CK2 (Homo sapiens, UniProt P68400)
PRKCQ = PRKCQ (Homo sapiens, UniProt Q04759)
IRAK1 = IRAK1 (Homo sapiens, UniProt P51617)
SRPK2 = SRPK2 (Homo sapiens, UniProt P78362)
FGFR2 = FGFR2 (Homo sapiens, UniProt P21802)
TIE2 = TIE2 (Homo sapiens, UniProt Q02763)
JAK3 = JAK3 (Homo sapiens, UniProt P52333)
PI3K BETA = PI3K BETA (Homo sapiens, UniProt P42338)
GRK5 = GRK5 (Homo sapiens, UniProt P34947)
DAPK1 = DAPK1 (Homo sapiens, UniProt P53355)
SAPK2B = SAPK2B (Homo sapiens, UniProt Q15759)
CDK7/CYCLINH/MAT1 = CDK7/CYCLINH/MAT1 (Homo sapiens, UniProt P50613)
CDK6/CYCLIND3 = CDK6/CYCLIND3 (Homo sapiens, UniProt Q00534)
GCK = GCK (Homo sapiens, UniProt Q12851)
MET = MET (Homo sapiens, UniProt P08581)
MET, sequence (P08581 25-1390): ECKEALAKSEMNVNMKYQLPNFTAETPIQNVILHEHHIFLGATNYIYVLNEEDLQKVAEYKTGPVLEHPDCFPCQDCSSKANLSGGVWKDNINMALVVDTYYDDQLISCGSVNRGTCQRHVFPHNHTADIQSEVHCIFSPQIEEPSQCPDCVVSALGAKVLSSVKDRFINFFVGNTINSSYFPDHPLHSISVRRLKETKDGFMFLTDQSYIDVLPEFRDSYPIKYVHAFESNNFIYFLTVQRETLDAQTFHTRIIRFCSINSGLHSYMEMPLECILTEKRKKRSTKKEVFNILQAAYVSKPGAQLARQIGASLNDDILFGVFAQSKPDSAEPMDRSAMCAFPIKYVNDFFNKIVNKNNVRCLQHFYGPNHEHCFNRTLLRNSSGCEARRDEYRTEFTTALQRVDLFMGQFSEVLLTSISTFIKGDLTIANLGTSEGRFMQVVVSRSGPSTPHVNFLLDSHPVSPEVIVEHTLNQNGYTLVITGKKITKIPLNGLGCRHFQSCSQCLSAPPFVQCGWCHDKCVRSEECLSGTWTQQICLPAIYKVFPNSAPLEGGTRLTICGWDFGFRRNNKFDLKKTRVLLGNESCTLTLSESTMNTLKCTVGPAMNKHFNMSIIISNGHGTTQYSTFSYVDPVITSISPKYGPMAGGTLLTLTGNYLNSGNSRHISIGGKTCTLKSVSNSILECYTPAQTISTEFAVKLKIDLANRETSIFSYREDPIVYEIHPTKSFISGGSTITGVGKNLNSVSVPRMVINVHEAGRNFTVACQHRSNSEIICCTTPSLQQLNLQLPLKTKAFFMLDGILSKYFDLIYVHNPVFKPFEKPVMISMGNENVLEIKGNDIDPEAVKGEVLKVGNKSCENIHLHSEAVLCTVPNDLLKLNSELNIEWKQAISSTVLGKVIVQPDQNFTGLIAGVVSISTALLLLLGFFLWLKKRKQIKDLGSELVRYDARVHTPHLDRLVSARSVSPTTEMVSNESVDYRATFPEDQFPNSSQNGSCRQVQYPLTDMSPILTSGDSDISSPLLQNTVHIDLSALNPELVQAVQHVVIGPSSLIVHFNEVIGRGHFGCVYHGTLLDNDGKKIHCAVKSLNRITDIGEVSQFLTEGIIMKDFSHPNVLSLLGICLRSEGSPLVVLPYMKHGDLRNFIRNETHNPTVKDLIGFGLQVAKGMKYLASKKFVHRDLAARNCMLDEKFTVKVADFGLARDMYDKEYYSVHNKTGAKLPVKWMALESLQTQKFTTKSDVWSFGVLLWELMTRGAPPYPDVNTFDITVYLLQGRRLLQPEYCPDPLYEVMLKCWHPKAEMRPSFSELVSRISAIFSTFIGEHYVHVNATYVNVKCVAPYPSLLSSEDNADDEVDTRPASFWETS

PIM-3 = PIM-3 (Homo sapiens, UniProt Q86V86)
PKBBETA = PKBBETA (Homo sapiens, UniProt P31751)
PKBBETA, sequence (P31751 whole entry): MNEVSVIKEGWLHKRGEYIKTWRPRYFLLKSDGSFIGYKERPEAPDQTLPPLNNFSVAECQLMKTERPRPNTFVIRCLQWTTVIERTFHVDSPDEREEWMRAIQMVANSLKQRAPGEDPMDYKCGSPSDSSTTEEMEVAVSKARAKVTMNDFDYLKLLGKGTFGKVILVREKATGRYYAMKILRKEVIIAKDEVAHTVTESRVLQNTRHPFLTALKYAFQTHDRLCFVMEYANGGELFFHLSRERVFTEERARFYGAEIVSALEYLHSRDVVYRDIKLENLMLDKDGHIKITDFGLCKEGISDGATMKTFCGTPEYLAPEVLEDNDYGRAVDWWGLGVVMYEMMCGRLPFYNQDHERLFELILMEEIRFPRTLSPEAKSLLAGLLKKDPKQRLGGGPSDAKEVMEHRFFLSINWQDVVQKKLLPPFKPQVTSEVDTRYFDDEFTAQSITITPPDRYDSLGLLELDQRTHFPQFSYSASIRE

ARG = ARG (Homo sapiens, UniProt P42684)
PIM-2 = PIM-2 (Homo sapiens, UniProt Q9P1W9)
HIPK2 = HIPK2 (Homo sapiens, UniProt Q9H2X6)
IRR = IRR (Homo sapiens, UniProt P14616)
MEK1 = MEK1 (Homo sapiens, UniProt Q02750)
NLK = NLK (Homo sapiens, UniProt Q9UBE8)
IKKALPHA = IKKALPHA (Homo sapiens, UniProt O15111)
IKKALPHA, sequence (O15111 whole entry): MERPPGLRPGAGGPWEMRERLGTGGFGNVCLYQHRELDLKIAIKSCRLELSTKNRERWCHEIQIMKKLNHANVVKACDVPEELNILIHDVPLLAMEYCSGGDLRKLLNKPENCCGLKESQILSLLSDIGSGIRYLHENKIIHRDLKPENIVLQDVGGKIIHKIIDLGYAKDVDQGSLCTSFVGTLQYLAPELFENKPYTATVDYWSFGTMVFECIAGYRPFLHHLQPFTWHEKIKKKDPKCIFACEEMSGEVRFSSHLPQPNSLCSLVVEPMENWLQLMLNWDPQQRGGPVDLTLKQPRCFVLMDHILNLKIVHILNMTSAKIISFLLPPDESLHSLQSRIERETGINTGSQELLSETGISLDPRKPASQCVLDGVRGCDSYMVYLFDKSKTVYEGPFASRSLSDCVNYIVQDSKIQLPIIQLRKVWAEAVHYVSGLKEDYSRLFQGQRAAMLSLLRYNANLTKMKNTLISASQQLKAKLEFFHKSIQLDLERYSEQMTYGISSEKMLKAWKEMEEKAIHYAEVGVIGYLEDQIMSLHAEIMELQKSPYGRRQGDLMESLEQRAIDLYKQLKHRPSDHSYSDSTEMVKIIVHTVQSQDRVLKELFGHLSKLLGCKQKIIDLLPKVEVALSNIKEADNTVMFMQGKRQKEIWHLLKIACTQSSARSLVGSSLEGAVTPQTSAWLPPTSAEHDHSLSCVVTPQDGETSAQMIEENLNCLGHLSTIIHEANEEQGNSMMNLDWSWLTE

PAK6 = PAK6 (Homo sapiens, UniProt Q9NQU5)
PKD2 = PKD2 (Homo sapiens, UniProt Q9BZL6)

EPHB3, sequence (P54753 34-998): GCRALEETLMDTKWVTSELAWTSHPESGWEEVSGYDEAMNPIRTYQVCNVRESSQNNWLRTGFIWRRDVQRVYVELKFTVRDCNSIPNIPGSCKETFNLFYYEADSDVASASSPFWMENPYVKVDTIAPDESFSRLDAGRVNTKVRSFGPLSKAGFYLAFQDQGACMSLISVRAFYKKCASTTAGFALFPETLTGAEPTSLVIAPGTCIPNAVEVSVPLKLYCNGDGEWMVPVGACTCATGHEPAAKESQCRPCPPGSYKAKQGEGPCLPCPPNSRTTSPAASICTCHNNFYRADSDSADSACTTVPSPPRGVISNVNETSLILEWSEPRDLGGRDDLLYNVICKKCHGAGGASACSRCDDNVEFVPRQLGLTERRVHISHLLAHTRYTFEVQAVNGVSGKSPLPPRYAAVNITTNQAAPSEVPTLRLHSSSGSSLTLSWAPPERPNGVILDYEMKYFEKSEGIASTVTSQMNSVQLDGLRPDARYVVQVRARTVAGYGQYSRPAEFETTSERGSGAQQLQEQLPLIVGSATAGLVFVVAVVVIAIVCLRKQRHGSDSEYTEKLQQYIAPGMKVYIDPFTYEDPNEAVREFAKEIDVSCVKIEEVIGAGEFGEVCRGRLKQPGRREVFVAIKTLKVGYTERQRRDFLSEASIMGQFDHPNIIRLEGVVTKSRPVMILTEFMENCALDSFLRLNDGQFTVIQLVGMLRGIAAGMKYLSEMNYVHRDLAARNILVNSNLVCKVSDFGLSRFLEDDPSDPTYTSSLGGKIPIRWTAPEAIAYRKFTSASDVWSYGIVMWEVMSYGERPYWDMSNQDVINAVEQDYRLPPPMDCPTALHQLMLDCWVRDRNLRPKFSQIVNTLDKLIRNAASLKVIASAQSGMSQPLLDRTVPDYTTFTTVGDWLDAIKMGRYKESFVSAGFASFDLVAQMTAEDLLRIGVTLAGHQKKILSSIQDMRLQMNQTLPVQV

For `COC1CN(C(=O)c2ccc3c(N)ncc(-c4ccc(-c5cnn(C)c5)cc4)c3n2)C1` [Compound 51], the percentage effect (PKCIOTA) was -16%, the percentage effect (IR, ACTIVATED) was -15% and the percentage effect (PTK5) was -8%. It also gave a percentage effect (TGFBR1) of -5%, a percentage effect (EPHB3) of 2% and a percentage effect (IR) of 3%. The percentage effect (TRKA) was -23%, the percentage effect (PKCMU) was -3% and the percentage effect (EPHB4) was 8%. It also gave a percentage effect (HIPK3) of 6%, a percentage effect (CLK2) of -18% and a percentage effect ([…]) of -10%. It also gave a percentage effect (PAK5) of -23%, a percentage effect (PKCALPHA) of -10% and a percentage effect (PHKGAMMA2) of 10%. The percentage effect (NEK11) was 3%, the percentage effect (LKB1) was -5% and the percentage effect (ALK4) was 9%. It also gave a percentage effect (PRAK) of 15%, a percentage effect (CK2) of 5% and a percentage effect (PRKCQ) of 5%. It also gave a percentage effect (IRAK1) of 8%, a percentage effect (SRPK2) of 0% and a percentage effect (FGFR2) of -3%. The percentage effect (TIE2) was -6%, the percentage effect (JAK3) was 2% and the percentage effect (PI3K BETA) was -3%. The percentage effect (GRK5) was 6%, the percentage effect (DAPK1) was 0% and the percentage effect (SAPK2B) was 0%. It also gave a percentage effect (CDK7/CYCLINH/MAT1) of 20%, a percentage effect (CDK6/CYCLIND3) of -10% and a percentage effect (GCK) of -26%. The percentage effect (MET) was 22%, the percentage effect (PIM-3) was -9% and the percentage effect (PKBBETA) was 13%. It also gave a percentage effect (ARG) of 11%, a percentage effect (PIM-2) of 16% and a percentage effect (HIPK2) of -8%. It also gave a percentage effect (IRR) of -2%, a percentage effect (MEK1) of -18% and a percentage effect (NLK) of -3%. For the same compound, the percentage effect (IKKALPHA) was -17%, the percentage effect (PAK6) was -12% and the percentage effect (PKD2) was -1%.

`COC1CN(C(=O)c2ccc3c(N)ncc(-c4ccc(-c5cnn(C)c5)cc4)c3c2)C1` [Compound 59] showed a percentage effect (PKCIOTA) of 2%, a percentage effect (IR, ACTIVATED) of -2% and a percentage effect (PTK5) of -4%. It also gave a percentage effect (TGFBR1) of -4%, a percentage effect (EPHB3) of -10% and a percentage effect (IR) of -15%. For the same compound, the percentage effect (TRKA) was -25%, the percentage effect (PKCMU) was 10% and the percentage effect (EPHB4) was 6%. For the same compound, the percentage effect (HIPK3) was 4%, the percentage effect (CLK2) was -3% and the percentage effect ([…]) was 8%. For the same compound, the percentage effect (PAK5) was -7%, the percentage effect (PKCALPHA) was -2% and the percentage effect (PHKGAMMA2) was 2%. For the same compound, the percentage effect (NEK11) was -22%, the percentage effect (LKB1) was -10% and the percentage effect (ALK4) was 8%. The percentage effect (PRAK) was -17%, the percentage effect (CK2) was 8% and the percentage effect (PRKCQ) was -12%. It also gave a percentage effect (IRAK1) of 14%, a percentage effect (SRPK2) of -2% and a percentage effect (FGFR2) of -6%. For the same compound, the percentage effect (TIE2) was -18%, the percentage effect (JAK3) was 14% and the percentage effect (PI3K BETA) was -2%. The percentage effect (GRK5) was 22%, the percentage effect (DAPK1) was -5% and the percentage effect (SAPK2B) was 43%. For the same compound, the percentage effect (CDK7/CYCLINH/MAT1) was -4%, the percentage effect (CDK6/CYCLIND3) was -14% and the percentage effect (GCK) was 1%. For the same compound, the percentage effect (MET) was -19%, the percentage effect (PIM-3) was 9% and the percentage effect (PKBBETA) was -24%. For the same compound, the percentage effect (ARG) was -7%, the percentage effect (PIM-2) was 14% and the percentage effect (HIPK2) was 16%. For the same compound, the percentage effect (IRR) was -5%, the percentage effect (MEK1) was -9% and the percentage effect (NLK) was -5%. It also gave a percentage effect (IKKALPHA) of 28%, a percentage effect (PAK6) of 25% and a percentage effect (PKD2) of -5%.
